Results reported in paper PMC3915329 (Journal of Ginseng Research, 2013).

These compounds were tested against T1, protein tyrosine phosphatase 1B (PTP1B) (Homo sapiens, UniProt P18031) (assay: Inhibitory activity against PTP1B assay).
T1 sequence (P18031 1-435): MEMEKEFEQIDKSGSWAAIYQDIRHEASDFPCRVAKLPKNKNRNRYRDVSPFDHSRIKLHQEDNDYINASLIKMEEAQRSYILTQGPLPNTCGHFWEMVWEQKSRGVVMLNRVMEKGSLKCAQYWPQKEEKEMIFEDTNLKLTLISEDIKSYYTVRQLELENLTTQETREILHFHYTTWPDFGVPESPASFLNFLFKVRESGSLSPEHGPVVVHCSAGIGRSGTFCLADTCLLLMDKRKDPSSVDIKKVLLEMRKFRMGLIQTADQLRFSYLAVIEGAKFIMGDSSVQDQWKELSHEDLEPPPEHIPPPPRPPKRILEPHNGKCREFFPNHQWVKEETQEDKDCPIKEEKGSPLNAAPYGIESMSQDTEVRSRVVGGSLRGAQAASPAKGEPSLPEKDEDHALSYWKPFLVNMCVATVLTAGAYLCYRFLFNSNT
Format: biochemical

SMILES	IC50
CC(C)=CCC[C@](C)(O[C@@H]1O[C@H](CO)[C@@H](O)[C@H](O)[C@H]1O)[C@H]1CC[C@]2(C)[C@@H]1[C@H](O)C[C@@H]1[C@@]3(C)CC[C@H](O[C@@H]4O[C@H](CO)[C@@H](O)[C@H](O)[C@H]4O[C@@H]4O[C@H](CO)[C@@H](O)[C@H](O)[C@H]4O)C(C)(C)[C@@H]3CC[C@]12C [Compound 9, ginsenoside-Rd]	> 100 µM
CC(C)=CCC[C@](C)(O[C@@H]1O[C@H](CO)[C@@H](O)[C@H](O)[C@H]1O)[C@H]1CC[C@]2(C)[C@@H]1[C@H](O)C[C@@H]1[C@@]3(C)CC[C@H](O)C(C)(C)[C@@H]3[C@@H](O)C[C@]12C [Compound 14, ginsenoside-F1]	> 100 µM
CC1(C)CCC[C@](C)([C@H]2CC[C@]3(C)[C@@H]2[C@H](O)C[C@@H]2[C@@]4(C)CC[C@H](O)C(C)(C)[C@@H]4CC[C@]23C)O1 [Compound 18, panaxadiol]	> 100 µM

Results, then the compound that gave them:

IC50	SMILES
> 100 µM	CC(C)=CCC[C@](C)(O[C@@H]1O[C@H](CO[C@@H]2O[C@H](CO)[C@@H](O)[C@H](O)[C@H]2O)[C@@H](O)[C@H](O)[C@H]1O)[C@H]1CC[C@]2(C)[C@@H]1[C@H](O)C[C@@H]1[C@@]3(C)CC[C@H](O[C@@H]4O[C@H](CO)[C@@H](O)[C@H](O)[C@H]4O[C@@H]4O[C@H](CO)[C@@H](O)[C@H](O)[C@H]4O)C(C)(C)[C@@H]3CC[C@]12C [Compound 5, ginsenoside-Rb1]
> 100 µM	CC(C)=CCC[C@](C)(O[C@@H]1O[C@H](CO[C@@H]2O[C@@H](CO)[C@H](O)[C@H]2O)[C@@H](O)[C@H](O)[C@H]1O)[C@H]1CC[C@]2(C)[C@@H]1[C@H](O)C[C@@H]1[C@@]3(C)CC[C@H](O[C@@H]4O[C@H](CO)[C@@H](O)[C@H](O)[C@H]4O[C@@H]4O[C@H](CO)[C@@H](O)[C@H](O)[C@H]4O)C(C)(C)[C@@H]3CC[C@]12C [Compound 8, ginsenoside-Rc]
